Reference: patent publication US10676459B2, “Antifungal compounds and processes for making” (MYCOVIA PHARMACEUTICALS INC., priority 2015, dated 2020)

Tests used:
[1] = Gravimetric Vapor Sorption (GVS) isotherm and XRPD post GVS; assay type: physicochemical
Procedure: Gravimetric Vapor Sorption (GVS) isotherms were obtained using a SMS DVS Intrinsic moisture sorption analyser, controlled by DVS Intrinsic Control software v1.0.1.2 (or v 1.0.1.3). The sample temperature was maintained at 25° C. by the instrument controls. The humidity was controlled by mixing streams of dry and wet nitrogen, with a total flow rate of 200 mL/min. The relative humidity was measured by a calibrated Rotronic probe (dynamic range of 1.0-100% RH), located near the sample. The weight change, (mass relaxation) of the sample as a function of % RH was constantly monitored by the microbalance (accuracy ±0.005 mg). Typically 5-20 mg of sample was placed in a tared mesh stainless steel basket under ambient conditions. The sample was loaded and unloaded at 40% RH and 25° C. (typical room conditions). A moisture sorption isotherm was performed as outlined below (2 scans giving 1 complete cycle). The standard isotherm was performed at 25° C. at 10% RH intervals over a 0-90% RH range. Data analysis was undertaken in Microsoft Excel using DVS Analysis Suite v6.2 (or 6.1 or 6.0).
Method Parameters for SMS DVS Intrinsic Experiments
The sample was recovered after completion of the isotherm and re-analysed by XRPD.

[2] = Solubility and pH of saturated solution; assay type: physicochemical
[3] = Human multiple-dose pharmacokinetic comparison; assay type: in vivo; conditions: for Cmax / Tmax: in vivo
Procedure: Human Pharmacokinetic Comparison of Compound 1 X-Hydrate and Compound 1 Anhydrous Form
Table 6 compares human multiple-dose pharmacokinetic (PK) parameters between dosing with Compound 1 X-hydrate and Compound 1 Anhydrous form. Compound 1 X-hydrate was dosed at 600 mg twice daily (bid) for three days followed by dosing at 300 mg once daily (qd) for 10 days. Compound 1 Anhydrous form was dosed at 300 mg qd for 14 days.

[4] = XRPD stability post 2 weeks storage at temperature and humidity; assay type: physicochemical
Procedure: X-Ray Powder Diffraction patterns were collected on a Bruker AXS C2 GADDS diffractometer using Cu Kα radiation (40 kV, 40 mA), automated XYZ stage, laser video microscope for auto-sample positioning and a Hi Star 2-dimensional area detector. X-ray optics consists of a single Göbel multilayer mirror coupled with a pinhole collimator of 0.3 mm. A weekly performance check is carried out using a certified standard NIST 1976 Corundum (flat plate). The beam divergence, i.e. the effective size of the X-ray beam on the sample, was approximately 4 mm. A Θ-Θ continuous scan mode was employed with a sample-detector distance of 20 cm which gives an effective […] of 3.2°-29.7°. Typically the sample would be exposed to the X-ray beam for 120 seconds. The software used for data collection was GADDS for XP/2000 4.1.43 and the data were analysed and presented using Diffrac Plus EVA v13.0.0.2 or v15.0.0.0. […]
X-Ray Powder Diffraction patterns were also collected on a Bruker D8 diffractometer using Cu Kα radiation (40 kV, 40 mA), 0-20 goniometer, and divergence of V4 and receiving slits, a Ge monochromator and a Lynxeye detector. […] The software used for data collection was Diffrac Plus XRD Commander v2.6.1 and the data were analysed and presented using Diffrac Plus EVA v13.0.0.2 or v15.0.0.0. […]

[5] = 300 mg qd for 14 days vs X-hydrate 600 mg bid for three days then 300 mg qd for 10 days
[6] = 600 mg bid loading dose for 3 days, then 300 mg qd maintenance for 10 days

GVS water uptake at 90% RH ([1]; 25° C., listed as Anhydrous 1) | pH of saturated solution ([2]; listed as Anhydrous 1) | AUC0-8 h ([3]; 300 mg qd for 14 days) | area-under-the-curve (AUC) compared with Compound 1 X-hydrate [3, 5] | maximal concentration (Cmax) compared with Compound 1 X-hydrate [3, 5] | Cmax ([3]; 300 mg qd for 14 days) | Tmax ([3]; 300 mg qd for 14 days) | XRPD stability post 2 weeks at 25° C. & 97% RH ([4]; 25° C. & 97% RH) | XRPD stability post 2 weeks at 40° C. & 75% RH ([4]; 40° C. & 75% RH) | GVS sample hysteresis ([1]; 0-90% RH, 25° C.) | GVS water uptake at 90% RH ([1]; 25° C., listed as X-hydrate 1) | XRPD post GVS ([1]; after GVS experiment) | solubility [2] | pH of saturated solution ([2]; listed as X-hydrate 1) | AUC0-8 h [3, 6] | Cmax [3, 6] | Tmax [3, 6] | Structure (SMILES)
0.14% w/w water uptake at | pH of saturated solution = 8.7 | 35653 ngh/mL | higher | higher | 4690 ng/mL | 5 h |  |  |  |  |  |  |  |  |  |  | O[C@@](Cn1cnnn1)(c1ccc(F)cc1F)C(F)(F)c1ccc(-c2ccc(OCC(F)(F)F)cc2)cn1 [Compound 1 Anhydrous]
 |  |  |  |  |  |  | No change in crystalline form | No change in crystalline form | 90% RH. No sample hysteresis | 0.59% w/w water uptake at | No form change after GVS | < 1 µg/mL | pH of saturated solution = 8.6 | 17600 ngh/mL | 2520 ng/mL | 5 h | O[C@@](Cn1cnnn1)(c1ccc(F)cc1F)C(F)(F)c1ccc(-c2ccc(OCC(F)(F)F)cc2)cn1 [Compound 1 X-Hydrate]
